From patent US20230180804A1, “FLAVOR COMPOSITION, AND FOOD AND BEVERAGE” (TAKASAGO INTERNATIONAL CORPORATION, priority 2020, published 2023) come the findings set out here.

Assay [1] is described as follows: Sensory evaluation of p-cresol odor masking in p-cresol-containing citrus-flavored beverage. The settings on record: for p-Cresol Odor Intensity: beverage with 50 ppb p-cresol, average score of 7 panelists, scale 0-4; for concentration at which the compound masks the p-cresol odor and does not affect the citrus flavor, lower limit / concentration at which the compound masks the p-cresol odor and does not affect the citrus flavor, upper limit: citrus-flavored beverage with 50 ppb p-cresol. The protocol:
To 2 g of lemon flavor obtained by making lemon oil into an essence, purified water was added to adjust the total amount to 1000 ml. To this citrus-flavored beverage, p-cresol adjusted to a concentration of 1% by mass with 95% ethanol was added to 50 ppb in the citrus-flavored beverage. To this p-cresol-containing citrus-flavored beverage, 1-oxacycloheptadecan-7-en-2-one was added at the concentrations presented in Table 1 to confirm the p-cresol odor intensity (masking effect) and the influence on the citrus flavor of each sample.
For the test, seven skilled panelists were selected to perform sensory evaluation. The p-cresol odor intensity of the p-cresol-containing citrus-flavored beverage without added l-oxacycloheptadecan-7-en-2-one was determined as “Rating: 4,” and the p-cresol odor intensity of the p-cresol-free citrus-flavored beverage was determined as “Rating: 0,” and the p-cresol odor intensity (masking effect) of each sample was relatively evaluated according to the following evaluation criteria.
In addition, the influence of the citrus-flavored beverage on the citrus flavor was evaluated absolutely according to the following evaluation criteria for the presence or absence of off- flavor other than p-cresol odor and citrus flavor (Off-Flavor Intensity).
The results are as in Table 1, presenting the average score of the evaluation results for each panelist.

A further assay addresses T1, olfactory receptor OR9Q2 (Homo sapiens, UniProt Q8NGE9).
T1 construct: 20 N-terminal amino acid residues of bovine rhodopsin (Rho tag); expressed in transfected cells; host or cells: HEK293T
T1 sequence (Q8NGE9 1-314): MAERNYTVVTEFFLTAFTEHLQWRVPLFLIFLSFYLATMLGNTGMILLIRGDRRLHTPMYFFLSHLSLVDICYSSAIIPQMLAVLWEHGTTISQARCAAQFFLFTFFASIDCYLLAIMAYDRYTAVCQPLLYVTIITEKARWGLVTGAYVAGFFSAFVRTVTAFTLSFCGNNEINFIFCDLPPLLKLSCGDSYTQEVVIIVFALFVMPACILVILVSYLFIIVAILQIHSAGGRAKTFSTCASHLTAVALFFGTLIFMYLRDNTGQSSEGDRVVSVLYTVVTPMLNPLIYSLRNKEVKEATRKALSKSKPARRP
As to the kind of experiment: OR9Q2 response inhibitory effect for p-cresol, luciferase reporter gene assay. The class given is cell-based. The settings on record: p-cresol 100 µM mixed with various concentrations of compound; cells expressing OR9Q2; ratio of Fold Increase value (FIGS. 1 to 11). As to the method: The human olfactory receptor gene was obtained by cloning from Human Genomic DNA: Female (Promega) by PCR method based on the sequence information registered in GenBank. The 20 N-terminal amino acid residues of bovine rhodopsin were incorporated into the pME18S vector, and the obtained human olfactory receptor gene was incorporated downstream thereof to obtain a human olfactory receptor gene expression vector.
In 10 µL of Opti-MEM I (gibco), 0.05 µg of human olfactory receptor gene expression vector, 0.01 µg of RTP1S vector, 0.01 µg firefly luciferase vector pGL4.29 (Promega) containing cAMP response element promoter, and 0.005 µg of Renilla luciferase vector pGL4.74 (Promega) containing thymidine kinase promoter were dissolved to prepare a gene solution (for one well). HEK293T cells were seeded at 100 µL each in a 96-well plate (Biocoat, Coming) at the number of cells reaching confluence after 24 hours, and a gene solution was added to each well by the lipofection method according to the usage of Lipofectamine 3000 to introduce genes into the cells, and the cells were cultured at 37° C. in a 5% carbon dioxide atmosphere for 24 hours.
After removing the culture medium, the resultant was prepared with CD293 (gibco) medium ([…] added) so as to have a concentration for measuring the aroma substance to be tested, 50 µL of which was added each and stimulated for 3 hours, and then luciferase activity was measured according to the method of using the Dual-Luciferase Reporter Assay System (Promega). The response intensity of the olfactory receptor polypeptide was expressed as a Fold Increase value obtained by dividing the luciferase activity produced by stimulating the aroma substance by the luciferase activity produced in the test system containing no aroma substance.
p-Cresol at 100 µM was mixed with various concentrations of 1-oxacycloheptadecan-7-en-2-one, 1-oxacycloheptadecan-8-en-2-one, isoambrettolide, pentalide, muscone, civetone, 8-2-decenolactone, cinnamic aldehyde, […], sclareolide, and ethyl maltol, and receptor responses were measured in cells expressing OR9Q2. The ratio of the Fold Increase value in the test in which each compound was mixed was calculated, where the Fold Increase value in the test in none of these compounds was mixed was set to 100. FIGS. 1 to 11 present the results.

On to `CCc1occc(=O)c1O` [Ethyl Maltol, ethyl maltol], for which the “p-Cresol Odor Intensity” value is recorded as 2.3 points in assay [1] (1 ppb added); 1.4 points in assay [1] (1 ppm added); 2.0 points in assay [1] (10 ppb added); 1.3 points in assay [1] (10 ppm added); 3.7 points in assay [1] (10 ppt added); 1.6 points in assay [1] (100 ppb added). The entries for the “p-Cresol Odor Intensity” value in assay [1] (100 ppm added) and in assay [1] (100 ppt added) were 0.4 points and 2.7 points, respectively. In addition, the “concentration at which the compound masks the p-cresol odor and does not affect the citrus flavor, lower limit” value in assay [1] is reported as at least 100 ppt. Also, in assay [1], the “concentration at which the compound masks the p-cresol odor and does not affect the citrus flavor, upper limit” value is given as at most 10 ppm. The “effect of suppressing the response of OR9Q2 to p-cresol” value (from here on “effect … to p-cresol”) on olfactory receptor OR9Q2 is on record as “suppressing the response of OR9Q2 to p-cresol in a concentration-dependent manner”.

Consider `C[C@@H]1CCCCCCCCCCCCC(=O)C1` [Muscone, muscone], for which the “p-Cresol Odor Intensity” value was 3.7 points in assay [1] (0.001 ppt added); 2.7 points in assay [1] (0.01 ppt added); 2.4 points in assay [1] (0.1 ppt added); 0.9 points in assay [1] (1 ppb added); 2.1 points in assay [1] (1 ppt added); 0.4 points in assay [1] (10 ppb added). In addition, the “p-Cresol Odor Intensity” value in assay [1] (10 ppt added) is on record as 1.9 points; in assay [1] (100 ppb added), 0.3 points; in assay [1] (100 ppt added) it was 1.7 points. Besides, the “concentration at which the compound masks the p-cresol odor and does not affect the citrus flavor, lower limit” value in assay [1] is given as at least 0.01 ppt. Moreover, the “concentration at which the compound masks the p-cresol odor and does not affect the citrus flavor, upper limit” value in assay [1] is at most 1 ppb. Moreover, the “effect … to p-cresol” value at olfactory receptor OR9Q2 was “suppressing the response of OR9Q2 to p-cresol in a concentration-dependent manner”.

For the compound `O=C/C=C/c1ccccc1` [Cinnamic Aldehyde, cinnamic aldehyde], the “p-Cresol Odor Intensity” value in assay [1] (1 ppb added) worked out at 2.3 points; in assay [1] (1 ppm added), 1.7 points; in assay [1] (10 ppb added), 2.0 points; in assay [1] (10 ppm added), 0.9 points; in assay [1] (10 ppt added), 3.9 points; in assay [1] (100 ppb added), 2.0 points. The “p-Cresol Odor Intensity” value in assay [1] (100 ppm added) turned out to be 0.6 points; in assay [1] (100 ppt added), 2.7 points. The “concentration at which the compound masks the p-cresol odor and does not affect the citrus flavor, lower limit” value in assay [1] is recorded as at least 100 ppt. For the same compound, in assay [1], the “concentration at which the compound masks the p-cresol odor and does not affect the citrus flavor, upper limit” value is reported as at most 10 ppm. Besides, the “effect … to p-cresol” value on olfactory receptor OR9Q2 is “suppressing the response of OR9Q2 to p-cresol in a concentration-dependent manner”.

For `CC1(C)CCC[C@]2(C)[C@H]3CC(=O)O[C@]3(C)CC[C@@H]12` [Sclareolide, sclareolide], the “p-Cresol Odor Intensity” value in assay [1] (1 ppb added) is listed as 2.1 points; in assay [1] (1 ppm added), 1.0 points; in assay [1] (10 ppb added) it was 1.9 points; in assay [1] (10 ppm added), 0.4 points; in assay [1] (10 ppt added), 3.6 points; in assay [1] (100 ppb added), 1.1 points. In addition, the “p-Cresol Odor Intensity” value in assay [1] (100 ppt added) came out at 2.6 points. Further, the “concentration at which the compound masks the p-cresol odor and does not affect the citrus flavor, lower limit” value in assay [1] is recorded as at least 100 ppt. For the same compound, the “concentration at which the compound masks the p-cresol odor and does not affect the citrus flavor, upper limit” value in assay [1] is at most 1 ppm. Besides, at olfactory receptor OR9Q2, the “effect … to p-cresol” value is on record as “suppressing the response of OR9Q2 to p-cresol in a concentration-dependent manner”.

For the compound `CCCCCC1CC=CC(=O)O1` (stereo not drawn) [δ-2-Decenolactone, δ-2-decenolactone], the “p-Cresol Odor Intensity” value in assay [1] (1 ppb added) was determined as 2.3 points; in assay [1] (1 ppm added), 1.3 points; in assay [1] (1 ppt added) it was 3.9 points; in assay [1] (10 ppb added), 2.0 points; in assay [1] (10 ppm added) it was 0.7 points; in assay [1] (10 ppt added), 2.7 points. Besides, the “p-Cresol Odor Intensity” value in assay [1] (100 ppb added) came out at 1.6 points; in assay [1] (100 ppt added) it was 2.4 points. Further, the “concentration at which the compound masks the p-cresol odor and does not affect the citrus flavor, lower limit” value in assay [1] was at least 10 ppt. Also, the “concentration at which the compound masks the p-cresol odor and does not affect the citrus flavor, upper limit” value in assay [1] was at most 100 ppb. The “effect … to p-cresol” value at olfactory receptor OR9Q2 was “suppressing the response of OR9Q2 to p-cresol in a concentration-dependent manner”.

For the compound `C=C1CC[C@H]2O[C@]2(C)CC[C@@H]2[C@@H]1CC2(C)C` [β-caryophyllene Oxide, β-caryophyllene oxide], the “p-Cresol Odor Intensity” value was 2.1 points in assay [1] (1 ppb added); 1.0 points in assay [1] (1 ppm added); 1.7 points in assay [1] (10 ppb added); 1.0 points in assay [1] (10 ppm added); 3.9 points in assay [1] (10 ppt added); 1.6 points in assay [1] (100 ppb added). In addition, the “p-Cresol Odor Intensity” value was found to be 0.4 points in assay [1] (100 ppm added) and 2.6 points in assay [1] (100 ppt added). Moreover, the “concentration at which the compound masks the p-cresol odor and does not affect the citrus flavor, lower limit” value in assay [1] is reported as at least 100 ppt. Besides, the “concentration at which the compound masks the p-cresol odor and does not affect the citrus flavor, upper limit” value in assay [1] was at most 1 ppm. The “effect … to p-cresol” value on olfactory receptor OR9Q2 was “suppressing the response of OR9Q2 to p-cresol in a concentration-dependent manner”.
